This is an account of results in PubChem BioAssay (NCI).

Holding throughout (assay): NCI-60 cell line screen, 48 h
The subject of test [1] is NCI-H226 lung.
Test [2] has as its system NCI-H522 lung.
For test [3], the system named is SK-MEL-2 melanoma.
In test [4] the test system is SNB-19 CNS.
In test [5] the test system is SF-268 CNS.
Test [6] has as its system CAKI-1 renal.
Test [7] concerns HT29 colon.
Test [8] relates to SF-539 CNS.

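Five concentrations, 48 hours, 96-well plates. The concentration for full growth arrest is given as TGI.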

As to `CC(=O)c1ccc(NC(=O)C(=O)Nn2c(=S)[nH]c3ccccc3c2=O)cc1`, the TGI in test [1], in test [2], in test [3], in test [4], in test [5] and in test [6] was greater than 100 µM in each case. In addition, the TGI in test [7] and in test [8] was greater than 100 µM each time.
Consider `CCc1cccc(C(C)C)c1N1C(=O)C(=O)C(c2nc3ccccc3s2)C(=O)C1=O`, for which the TGI in test [2] is 48.6 µM; in test [3] it was greater than 50 µM; in test [4] it was greater than 50 µM; in test [5], greater than 50 µM; in test [6], greater than 50 µM; in test [7], greater than 50 µM. The compound also yielded a TGI in test [8] greater than 50 µM.
For `CCCCCCCCCCCCCP(=O)(O)OCC`, the TGI in test [1], in test [2], in test [3], in test [4], in test [5] and in test [7] was greater than 100 µM in each case. Besides, in test [8], the TGI is greater than 100 µM.
On to `CC(C)(C)c1cc2c3c(c1)C(C(F)(F)F)(C(F)(F)F)O[Te]3(C)OC2(C(F)(F)F)C(F)(F)F`, for which the TGI in test [1], in test [2], in test [3], in test [4], in test [5] and in test [6] was greater than 100 µM throughout. Further, the TGI in test [7] and in test [8] was greater than 100 µM each time.
Take `NCCCNCCCCN(CCCN)/[N+]([O-])=N\O`: the TGI in test [1], in test [3], in test [4], in test [5], in test [6] and in test [7] was greater than 100 µM in each case. The compound also had a TGI in test [8] greater than 100 µM.
Turning to `C1=CC=C2NCCCNC3=CC=CC=CC3=NCCCN=C2C=C1`, the TGI in test [1], in test [3], in test [4], in test [5], in test [7] and in test [8] was greater than 100 µM in each case.
As to `O=C(Cn1ccnc1[N+](=O)[O-])c1ccc(F)cc1`, the TGI in test [1], in test [2], in test [3], in test [4], in test [5] and in test [6] was greater than 100 µM throughout. The TGI in test [7] and in test [8] was greater than 100 µM in each case.
On to `COc1cc(OC)c(C2CC=Cc3c(OC)cc(OC)c(OC)c32)cc1OC` (centres undefined), for which the TGI in test [1], in test [3], in test [5], in test [6], in test [7] and in test [8] was greater than 100 µM in each case.
With `COCCCNC(=O)CC(=O)NCCCOC`, the TGI in test [2], in test [3], in test [4], in test [5], in test [7] and in test [8] was greater than 100 µM in each case.
Consider `CCC(=O)c1c(NOC2OC(COC(C)=O)C(OC(C)=O)C(OC(C)=O)C2OC(C)=O)nc(OC)n(C)c1=O` (centres undefined), for which the TGI in test [1], in test [2], in test [3], in test [4], in test [5] and in test [7] was greater than 100 µM throughout. Further, in test [8], the TGI is greater than 100 µM.
On to `COC1OC(COCc2ccc(Cl)cc2)C(OCc2ccc(Cl)cc2)C1N=[N+]=[N-]` (centres undefined), for which the TGI in test [1], in test [2], in test [3], in test [4], in test [6] and in test [7] was greater than 100 µM throughout.
Take `COC(=O)c1c(N)n[nH]c1N`: the TGI in test [2], in test [3], in test [4], in test [5], in test [6] and in test [8] was greater than 100 µM throughout.
For the compound `CS(=O)(=O)N(N(CCCl)S(=O)(=O)c1ccccc1)S(C)(=O)=O`, the TGI in test [1], in test [2], in test [3], in test [4], in test [5] and in test [6] was greater than 100 µM each time. The TGI in test [7] and in test [8] was greater than 100 µM each time.
For `O=[N+]([O-])c1cccc(-c2oc(C=Nc3ccccc3)c([N+](=O)[O-])c2-c2cccc([N+](=O)[O-])c2)c1`, the TGI in test [1], in test [2], in test [3], in test [5], in test [7] and in test [8] was greater than 100 µM throughout.
Consider `CN(C)CCNC(=O)c1cccc2c1nc(-c1ccccc1)c1ccccc12`, for which the TGI was 12.5 µM in test [1]; 23.6 µM in test [3]; 23.8 µM in test [4]; 18.5 µM in test [5]; 18.4 µM in test [6]; 13.1 µM in test [7]. In addition, the TGI in test [8] came out at 8.02 µM.
Take `O=C(CCC(=O)C(C(=O)c1ccccc1)c1ccccc1)Nc1cccc(C(F)(F)F)c1` (centres undefined): the TGI in test [1], in test [2], in test [3], in test [4], in test [5] and in test [6] was greater than 100 µM throughout. In addition, the TGI in test [7] and in test [8] was greater than 100 µM each time.
With `O=C(Nc1nc2ncn(CCNCc3ccccc3)c2c(=O)[nH]1)c1ccccc1`, the TGI in test [1], in test [2], in test [3], in test [5], in test [6] and in test [7] was greater than 100 µM throughout. The same compound came in with a TGI in test [8] greater than 100 µM.
`CC1(C)Cc2cc(C(=O)O)c3c(c2C1=O)COCC3`: the TGI in test [1], in test [2], in test [3], in test [4], in test [5] and in test [6] was greater than 100 µM each time. The TGI in test [7] and in test [8] was greater than 100 µM each time.
With `CC1C[C@@H]2C(=O)NC(=O)[C@@H]2c2c1c1ccccc1n2C` (some centres undefined), the TGI in test [1], in test [2], in test [3], in test [4], in test [5] and in test [6] was greater than 100 µM throughout. Further, the TGI in test [7] and in test [8] was greater than 100 µM throughout.
